These results are taken from the OligoGym collection.

Several values for one entry are separate records, joined by “and”; a condition that tells them apart may be missing. Equal values may be shown once. These antisense oligonucleotides have a phosphorothioate backbone; sugars and methylation of C are not fully specified.

Targets include IL1R1; SELE; ERBB2; DUSP9.
What all share (details): ASO
Note: test concentration or dose not given here.

With AACTTCTCCATGCTACCCGA, the remaining target (mRNA or protein) (fraction of control) in the data set with IL1R1 turned out to be 0.75.

As to AATCATGACTTCAAGAGTTCT, the remaining target (mRNA or protein) (fraction of control) in the data set with SELE was 0.78 and 0.53.

For ACAGGATCTCTCAGGTGGGT, the remaining target (mRNA or protein) (fraction of control) with SELE was found to be 0.2.

ACCACACTGGTATTTCACAC: the remaining target (mRNA or protein) (fraction of control) in the data set with SELE is 0.67.

As for ACCGCAGAGATGATGGAC, the remaining target (mRNA or protein) (fraction of control) with ERBB2 stood at 0.98.

In the data set with SELE, ACCTCTGCTGTTCTGATCCT yielded a remaining target (mRNA or protein) (fraction of control) of 0.17.

As to ACGTTTGGCCTCATGGAAGT, the remaining target (mRNA or protein) (fraction of control) with SELE was found to be 0.35.

Turning to ACTCTGGTGGGTGAACCG, the remaining target (mRNA or protein) (fraction of control) with ERBB2 was found to be 0.86.

For the sequence AGATGCCTTGCGTTGGCTGC, the remaining target (mRNA or protein) (fraction of control) with IL1R1 turned out to be 0.5.

Turning to AGCCCCAGTGATCCCGTCAA, in the data set with DUSP9, the remaining target (mRNA or protein) (fraction of control) was at least 1.

In the data set with DUSP9, AGCGGCCCAGACCCTCCATG had a remaining target (mRNA or protein) (fraction of control) of 0.46.

Turning to AGGAGCAGGAGCCGCGGCCG, in the data set with DUSP9, the remaining target (mRNA or protein) (fraction of control) turned out to be 0.7.

Turning to AGGCCATGGATGTGGGCGGC, in the data set with DUSP9, the remaining target (mRNA or protein) (fraction of control) was determined as 0.57.

AGGCCCCAGCCCCGAGAGGC: the remaining target (mRNA or protein) (fraction of control) in the data set with DUSP9 was found to be 0.54.

With AGGGCTGCGGCGGCTCCACT, in the data set with IL1R1, the remaining target (mRNA or protein) (fraction of control) was 0.75.

AGTAACACTTTCATATTCTT showed a remaining target (mRNA or protein) (fraction of control) with IL1R1 of 0.75.

The sequence AGTCAAAGGAAGTTCACGGG showed a remaining target (mRNA or protein) (fraction of control) with IL1R1 of 0.5.

ATTAGGACGGCAGCCCGCGT registered a remaining target (mRNA or protein) (fraction of control) in the data set with DUSP9 of at least 1.

With CAATCATGACTTCAAGAGTTC, in the data set with SELE, the remaining target (mRNA or protein) (fraction of control) is 0.77.

In the case of CACAATCCTTAAGAACTCTTT, in the data set with SELE, the remaining target (mRNA or protein) (fraction of control) turned out to be 0.31.

For CACTGGTAACTGCCCTCA, the remaining target (mRNA or protein) (fraction of control) with ERBB2 turned out to be 0.54.

Consider CAGCAGGGTGCCCAGCACCG, for which the remaining target (mRNA or protein) (fraction of control) in the data set with DUSP9 was at least 1.

In the case of CAGCCAAGAACAGCT, the remaining target (mRNA or protein) (fraction of control) in the data set with SELE was determined as 0.5.

Consider CAGCCAAGAACAGCTGG, for which the remaining target (mRNA or protein) (fraction of control) in the data set with SELE was determined as 0.62.

CAGGAAGGACAGGCTGGC gave a remaining target (mRNA or protein) (fraction of control) with ERBB2 of 0.94.

Consider CAGGGTCAGCGAGTAGGC, for which, in the data set with ERBB2, the remaining target (mRNA or protein) (fraction of control) worked out at 0.89.

Sequence CATGGGCGATCGGCTCCCTA had a remaining target (mRNA or protein) (fraction of control) in the data set with DUSP9 of 0.85.

CCAAAGTGAGAGCTGAGAGA returned a remaining target (mRNA or protein) (fraction of control) in the data set with SELE of 0.36.

Regarding CCAATCATGACTTCAAGAGTT, in the data set with SELE, the remaining target (mRNA or protein) (fraction of control) was 0.32.

CCACAAAGACTCCCCAGT yielded a remaining target (mRNA or protein) (fraction of control) in the data set with ERBB2 of 0.44.

In the data set with DUSP9, CCACGGGCACTGGACCGGGC came in with a remaining target (mRNA or protein) (fraction of control) of 0.5.

CCAGACCCTCCATGGGCGAT: in the data set with DUSP9, the remaining target (mRNA or protein) (fraction of control) was at least 1.

In the data set with ERBB2, CCAGCAGTGAGCGGTAGA displayed a remaining target (mRNA or protein) (fraction of control) of 0.41.

For CCAGGCAGGAGCGCGCGCAC, the remaining target (mRNA or protein) (fraction of control) in the data set with DUSP9 worked out at 0.62.

Sequence CCATCAGTCTCAGAGGGC showed a remaining target (mRNA or protein) (fraction of control) with ERBB2 of 0.3.

In the data set with SELE, CCCAAAGGTTTAGGCTTG came in with a remaining target (mRNA or protein) (fraction of control) of 0.61.

As for CCCAGGGCCGGGACCTGGGC, in the data set with DUSP9, the remaining target (mRNA or protein) (fraction of control) worked out at 0.98.

Take CCCATGAAGTTGAAGTTGGG: in the data set with DUSP9, the remaining target (mRNA or protein) (fraction of control) turned out to be 0.44.

For the sequence CCCTTGTAGACTGTGCCA, the remaining target (mRNA or protein) (fraction of control) with ERBB2 worked out at 0.56.

Regarding CCGCACATCCTCCAGGTA, in the data set with ERBB2, the remaining target (mRNA or protein) (fraction of control) was 0.64.

In the case of CCGCCACTCCTGGTAGAT, the remaining target (mRNA or protein) (fraction of control) with ERBB2 was at least 1.

The sequence CCGGGCACTGCCCAGATAGA came in with a remaining target (mRNA or protein) (fraction of control) with DUSP9 of 0.62.

As to CCTCCATGGGCGATCGGCTC, the remaining target (mRNA or protein) (fraction of control) in the data set with DUSP9 was determined as 0.7.

Take CCTGCCTCACTTGGTTGT: the remaining target (mRNA or protein) (fraction of control) with ERBB2 came out at 0.64.

Take CCTTTCCAGAGTGGCACC: the remaining target (mRNA or protein) (fraction of control) with ERBB2 worked out at 0.75.

Take CGAAGAAGTTTGGGAGGTTG: the remaining target (mRNA or protein) (fraction of control) with DUSP9 turned out to be 0.3.

CGAAGGCTGGGCTGAAGG gave a remaining target (mRNA or protein) (fraction of control) with ERBB2 of 0.73.

For CGAGCACCCCGCAGTTCTGG, the remaining target (mRNA or protein) (fraction of control) with DUSP9 was determined as 0.94.

In the data set with DUSP9, CGAGCCCTCCTGCCCTCCCC registered a remaining target (mRNA or protein) (fraction of control) of 0.65.

In the data set with DUSP9, CGAGCGGCCCAGACCCTCCA came in with a remaining target (mRNA or protein) (fraction of control) of at least 1.

Consider CGGCCCAGACCCTCCATGGG, for which the remaining target (mRNA or protein) (fraction of control) with DUSP9 was 0.57.

The sequence CGTCGCGGCCGGGAAGTTTC returned a remaining target (mRNA or protein) (fraction of control) with DUSP9 of 0.95.

As to CGTTCTGCACTTACCGTTTTG, in the data set with SELE, the remaining target (mRNA or protein) (fraction of control) is 0.52.

CTCATGGAGTCGCGGTCAGC gave a remaining target (mRNA or protein) (fraction of control) with DUSP9 of 0.86.

In turn, CTCCTGCGAGTGGCGCTCCT registered a remaining target (mRNA or protein) (fraction of control) with DUSP9 of at least 1.

For the sequence CTGATTCAAGGCTTTGGCAG, in the data set with SELE, the remaining target (mRNA or protein) (fraction of control) came out at 0.55.

CTGCTGCCTCTGTCTCAGGT: in the data set with SELE, the remaining target (mRNA or protein) (fraction of control) was found to be 0.07.

For the sequence CTGGTAGAGGTGGCGGAG, the remaining target (mRNA or protein) (fraction of control) with ERBB2 is at least 1.
